Assays:
[1] = system: rabbit serum obtained by immunizing a rabbit with the SARS-CoV strain Frankfurt 1; format: binding; parameters: Binding of a rabbit serum to linear peptides / Binding of a rabbit serum to looped peptides / Rabbit serum linear peptides / Rabbit serum looped peptides / Binding of a rabbit serum to linear peptides of protein N of SARS-CoV Urbani (Rabbit serum linear peptides) / Binding of a rabbit serum to looped/cyclic peptides of protein N of SARS-CoV Urbani (Rabbit serum looped peptides): unit not given here
[2] = system: antibodies in sera from SARS patients (sera 1a, 1b, 2, 6, 37, 62, London, SARS-yellow, SARS-green); format: binding, human; parameters: Binding of serum 6 to linear peptides of protein X1 of SARS-CoV Urbani / Binding of serum 37 to linear peptides of protein X1 of SARS-CoV Urbani / Binding of serum 6 to looped/cyclic peptide (PEPSCAN-ELISA) / Binding of serum 37 to looped/cyclic peptide (PEPSCAN-ELISA) / Binding of serum 37 to looped/cyclic peptides of protein X1 of SARS-CoV Urbani / Binding of serum 6 to linear peptides of protein X2 / Binding of serum 37 to linear peptides of protein X2 / Binding of serum 37 to looped/cyclic peptides of protein X2 of SARS-CoV Urbani / Binding of serum 6 to linear peptides of protein M of SARS-CoV Urbani / Binding of serum 37 to linear peptides of protein M of SARS-CoV Urbani / Binding of serum 6 to looped/cyclic peptides of protein M of SARS-CoV Urbani / Binding of serum 37 to looped/cyclic peptides of protein M of SARS-CoV Urbani / Binding of serum 6 to linear peptides of protein X3 of SARS-CoV Urbani / Binding of serum 37 to linear peptides of protein X3 of SARS-CoV Urbani / Binding of serum 37 to looped/cyclic peptides of protein X3 of SARS-CoV Urbani / Binding of serum 6 to linear peptides of protein X4 of SARS-CoV Urbani / Binding of serum 37 to linear peptides of protein X4 of SARS-CoV Urbani / Binding of serum 37 to looped/cyclic peptides of protein X4 of SARS-CoV Urbani / Binding of serum 6 to linear peptides of protein X5 of SARS-CoV Urbani / Binding of serum 37 to linear peptides of protein X5 of SARS-CoV Urbani / Binding of serum 37 to looped/cyclic peptides of protein X5 of SARS-CoV Urbani / Binding of serum 6 to linear peptides of protein N of SARS-CoV Urbani / Binding of serum 37 to linear peptides of protein N of SARS-CoV Urbani / Binding of serum 6 to linear peptide (PEPSCAN-ELISA) / Binding of serum 1a to looped/cyclic peptides of protein N of SARS-CoV Urbani / Binding of serum 1b to looped/cyclic peptides of protein N of SARS-CoV Urbani / Binding of serum 2 to looped/cyclic peptides of protein N of SARS-CoV Urbani / Binding of serum 6 to looped/cyclic peptides of protein N of SARS-CoV Urbani / Binding of serum 37 to looped/cyclic peptides of protein N of SARS-CoV Urbani / Binding of serum 62 to looped/cyclic peptides of protein N of SARS-CoV Urbani / Binding of serum London to looped/cyclic peptides of protein N of SARS-CoV Urbani / Binding of serum SARS-green to looped/cyclic peptides of protein N of SARS-CoV Urbani: unit not given here
[3] = system: control sera (pooled serum of ten healthy LUMC hospital workers; commercial negative donor pooled serum from the Dutch bloodbank); format: binding, human; parameters: Binding of Control serum LUMC to linear peptides / Binding of Control serum Blood-bank to linear peptides / Binding of Control serum LUMC to looped peptides / Binding of Control Serum Blood-Bank to Looped peptides / Binding of Control serum LUMC to linear peptides of the protein M of SARS-CoV Urbani / Binding of Control serum Blood-bank to linear peptides of the protein M of SARS-CoV Urbani / Binding of Control serum LUMC to looped peptides of the protein M of SARS-CoV Urbani / Binding of Control Serum Blood-Bank to Looped peptides of the protein M of SARS-CoV Urbani: unit not given here

QLESTQITTDTGIEN
Binding of a rabbit serum to linear peptides [1]: 0.1 | Binding of a rabbit serum to looped peptides [1]: 0.6 | Binding of serum 1a to linear peptides of protein X1 of SARS-CoV Urbani [2]: 0.6 | Binding of serum 1a to looped/cyclic peptides of protein X1 of SARS-CoV Urbani [2]: 0.4 | Binding of serum 1b to linear peptides of protein X1 of SARS-CoV Urbani [2]: 0.5 | Binding of serum 1b to looped/cyclic peptides of protein X1 of SARS-CoV Urbani [2]: 0.3 | Binding of serum 2 to linear peptides of protein X1 of SARS-CoV Urbani [2]: 0.4 | Binding of serum 2 to looped/cyclic peptides of protein X1 of SARS-CoV Urbani [2]: 0.3 | Binding of serum 6 to linear peptides of protein X1 of SARS-CoV Urbani [2]: 0.4 | Binding of serum 6 to looped/cyclic peptides of protein X1 of SARS-CoV Urbani [2]: 0.2 | Binding of serum 37 to linear peptides of protein X1 of SARS-CoV Urbani [2]: 0.5 | Binding of serum 37 to looped/cyclic peptides of protein X1 of SARS-CoV Urbani [2]: 0.5 | Binding of serum 62 to linear peptides of protein X1 of SARS-CoV Urbani [2]: 0.5 | Binding of serum 62 to looped/cyclic peptides of protein X1 of SARS-CoV Urbani [2]: 0.5 | Binding of serum London to linear peptides of protein X1 of SARS-CoV Urbani [2]: 0.3 | Binding of serum London to looped/cyclic peptides of protein X1 of SARS-CoV Urbani [2]: 0.2 | Binding of serum SARS-green to linear peptides of protein X1 of SARS-CoV Urbani [2]: 0.2 | Binding of serum SARS-green to looped/cyclic peptides of protein X1 of SARS-CoV Urbani [2]: 0.4 | Binding of serum SARS-yellow to linear peptides of protein X1 of SARS-CoV Urbani [2]: 0.4 | Binding of serum SARS-yellow to looped/cyclic peptides of protein X1 of SARS-CoV Urbani [2]: 0.4 | Binding of Control Serum Blood-Bank to Looped peptides [3]: 0.5 | Binding of Control serum Blood-bank to linear peptides [3]: 0.3 | Binding of Control serum LUMC to linear peptides [3]: 0.5 | Binding of Control serum LUMC to looped peptides [3]: 0.5

HITMTTVYHITVSQI
Binding of a rabbit serum to linear peptides [1]: 0.7 | Binding of a rabbit serum to looped peptides [1]: 0.4 | Binding of serum 1a to linear peptides of protein X2 [2]: 0.6 | Binding of serum 1a to looped/cyclic peptides of protein X2 of SARS-CoV Urbani [2]: 0.6 | Binding of serum 1b to linear peptides of protein X2 [2]: 0.6 | Binding of serum 1b to looped/cyclic peptides of protein X2 of SARS-CoV Urbani [2]: 0.6 | Binding of serum 2 to linear peptides of protein X2 [2]: 0.5 | Binding of serum 2 to looped/cyclic peptides of protein X2 of SARS-CoV Urbani [2]: 0.3 | Binding of serum 6 to linear peptides of protein X2 [2]: 0.4 | Binding of serum 6 to looped/cyclic peptides of protein X2 of SARS-CoV Urbani [2]: 0.3 | Binding of serum 37 to linear peptides of protein X2 [2]: 0.6 | Binding of serum 37 to looped/cyclic peptides of protein X2 of SARS-CoV Urbani [2]: 0.6 | Binding of serum 62 to linear peptides of protein X2 [2]: 0.3 | Binding of serum 62 to looped/cyclic peptides of protein X2 of SARS-CoV Urbani [2]: 0.7 | Binding of serum London to linear peptides of protein X2 [2]: 0.4 | Binding of serum London to looped/cyclic peptides of protein X2 of SARS-CoV Urbani [2]: 0.2 | Binding of serum SARS-green to linear peptides of protein X2 [2]: 0.2 | Binding of serum SARS-green to looped/cyclic peptides of protein X2 of SARS-CoV Urbani [2]: 0.4 | Binding of serum SARS-yellow to linear peptides of protein X2 [2]: 0.7 | Binding of serum SARS-yellow to looped/cyclic peptides of protein X2 of SARS-CoV Urbani [2]: 0.5 | Binding of Control Serum Blood-Bank to Looped peptides [3]: 0.7 | Binding of Control serum Blood-bank to linear peptides [3]: 0.5 | Binding of Control serum LUMC to linear peptides [3]: 0.5 | Binding of Control serum LUMC to looped peptides [3]: 0.6

RSMWSFNPETNILLN
Rabbit serum linear peptides [1]: 0.4 | Rabbit serum looped peptides [1]: 0.3 | Binding of serum 1a to linear peptides of protein M of SARS-CoV Urbani [2]: 0.8 | Binding of serum 1a to looped/cyclic peptides of protein M of SARS-CoV Urbani [2]: 0.8 | Binding of serum 1b to linear peptides of protein M of SARS-CoV Urbani [2]: 0.6 | Binding of serum 1b to looped/cyclic peptides of protein M of SARS-CoV Urbani [2]: 0.4 | Binding of serum 2 to linear peptides of protein M of SARS-CoV Urbani [2]: 0.6 | Binding of serum 2 to looped/cyclic peptides of protein M of SARS-CoV Urbani [2]: 0.8 | Binding of serum 6 to linear peptides of protein M of SARS-CoV Urbani [2]: 0.3 | Binding of serum 6 to looped/cyclic peptides of protein M of SARS-CoV Urbani [2]: 0.7 | Binding of serum 37 to linear peptides of protein M of SARS-CoV Urbani [2]: 0.8 | Binding of serum 37 to looped/cyclic peptides of protein M of SARS-CoV Urbani [2]: 0.8 | Binding of serum 62 to linear peptides of protein M of SARS-CoV Urbani [2]: 0.7 | Binding of serum 62 to looped/cyclic peptides of protein M of SARS-CoV Urbani [2]: 0.8 | Binding of serum London to linear peptides of protein M of SARS-CoV Urbani [2]: 0.3 | Binding of serum London to looped/cyclic peptides of protein M of SARS-CoV Urbani [2]: 0.2 | Binding of serum SARS-green to linear peptides of protein M of SARS-CoV Urbani [2]: 0.2 | Binding of serum SARS-green to looped/cyclic peptides of protein M of SARS-CoV Urbani [2]: 0.4 | Binding of serum SARS-yellow to linear peptides of protein M of SARS-CoV Urbani [2]: 0.1 | Binding of serum SARS-yellow to looped/cyclic peptides of protein M of SARS-CoV Urbani [2]: 0.7 | Binding of Control Serum Blood-Bank to Looped peptides of the protein M of SARS-CoV Urbani [3]: 0.7 | Binding of Control serum Blood-bank to linear peptides of the protein M of SARS-CoV Urbani [3]: 0.8 | Binding of Control serum LUMC to linear peptides of the protein M of SARS-CoV Urbani [3]: 0.5 | Binding of Control serum LUMC to looped peptides of the protein M of SARS-CoV Urbani [3]: 0.7

LNVPLRGTIVTRPLM
Rabbit serum linear peptides [1]: 0.2 | Rabbit serum looped peptides [1]: 0.4 | Binding of serum 1a to linear peptides of protein M of SARS-CoV Urbani [2]: 0.7 | Binding of serum 1b to linear peptides of protein M of SARS-CoV Urbani [2]: 0.5 | Binding of serum 2 to linear peptides of protein M of SARS-CoV Urbani [2]: 0.6 | Binding of serum 6 to linear peptides of protein M of SARS-CoV Urbani [2]: 0.5 | Binding of serum 37 to linear peptides of protein M of SARS-CoV Urbani [2]: 0.5 | Binding of serum 62 to linear peptides of protein M of SARS-CoV Urbani [2]: 0.5 | Binding of serum London to linear peptides of protein M of SARS-CoV Urbani [2]: 0.4 | Binding of serum SARS-green to linear peptides of protein M of SARS-CoV Urbani [2]: 0.4 | Binding of serum SARS-yellow to linear peptides of protein M of SARS-CoV Urbani [2]: 0.1 | Recognition of the peptide by sera of SARS-CoV infected individuals, and form (linear, looped/cyclic) in which it is recognized [2]: recognized in looped/cyclic form | Binding of Control Serum Blood-Bank to Looped peptides of the protein M of SARS-CoV Urbani [3]: 0.6 | Binding of Control serum Blood-bank to linear peptides of the protein M of SARS-CoV Urbani [3]: 0.7 | Binding of Control serum LUMC to linear peptides of the protein M of SARS-CoV Urbani [3]: 0.5 | Binding of Control serum LUMC to looped peptides of the protein M of SARS-CoV Urbani [3]: 0.7

ACADGTRHTYQLRAR
Recognition of the peptide by the rabbit serum [1]: recognized | Binding of serum 1a to linear peptides of protein X4 of SARS-CoV Urbani [2]: 0.7 | Binding of serum 1a to looped/cyclic peptides of protein X4 of SARS-CoV Urbani [2]: 0.7 | Binding of serum 1b to linear peptides of protein X4 of SARS-CoV Urbani [2]: 0.6 | Binding of serum 1b to looped/cyclic peptides of protein X4 of SARS-CoV Urbani [2]: 0.3 | Binding of serum 2 to linear peptides of protein X4 of SARS-CoV Urbani [2]: 0.5 | Binding of serum 2 to looped/cyclic peptides of protein X4 of SARS-CoV Urbani [2]: 0.6 | Binding of serum 6 to linear peptides of protein X4 of SARS-CoV Urbani [2]: 0.6 | Binding of serum 6 to looped/cyclic peptides of protein X4 of SARS-CoV Urbani [2]: 0.6 | Binding of serum 37 to linear peptides of protein X4 of SARS-CoV Urbani [2]: 0.7 | Binding of serum 37 to looped/cyclic peptides of protein X4 of SARS-CoV Urbani [2]: 0.7 | Binding of serum 62 to linear peptides of protein X4 of SARS-CoV Urbani [2]: 0.8 | Binding of serum 62 to looped/cyclic peptides of protein X4 of SARS-CoV Urbani [2]: 0.6 | Binding of serum London to linear peptides of protein X4 of SARS-CoV Urbani [2]: 0.7 | Binding of serum London to looped/cyclic peptides of protein X4 of SARS-CoV Urbani [2]: 0.3 | Binding of serum SARS-green to linear peptides of protein X4 of SARS-CoV Urbani [2]: 0.7 | Binding of serum SARS-green to looped/cyclic peptides of protein X4 of SARS-CoV Urbani [2]: 0.5 | Binding of serum SARS-yellow to linear peptides of protein X4 of SARS-CoV Urbani [2]: 0.5 | Binding of serum SARS-yellow to looped/cyclic peptides of protein X4 of SARS-CoV Urbani [2]: 0.5 | Binding of Control Serum Blood-Bank to Looped peptides [3]: 0.5 | Binding of Control serum Blood-bank to linear peptides [3]: 0.6 | Binding of Control serum LUMC to linear peptides [3]: 0.6 | Binding of Control serum LUMC to looped peptides [3]: 0.5
